Data: US9850277B2, “Therapeutically active compositions and their methods of use” (AGIOS PHARMACEUTICALS, INC, priority 2013, dated 2017)
pIC50: −log10 of the molar value.

Molecular target: IDH1 R132H (Homo sapiens (Human), UniProt O75874, R132H)
Experiment: In vitro NADPH depletion assay for IDH1m R132H inhibitors
Type: biochemical
Conditions: IDH1 R132H enzyme, read-out: IDH R132H IC50
Method: (§1) A test compound is prepared as 10 mM stock in DMSO and diluted to 50× final concentration in DMSO, for a 50 μl reaction mixture. IDH enzyme activity converting alpha-ketoglutarate to 2-hydroxyglutaric acid is measured using a NADPH depletion assay. In the assay the remaining cofactor is measured at the end of the reaction with the addition of a catalytic excess of diaphorase and resazurin, to generate a fluorescent signal in proportion to the amount of NADPH remaining. […] The reaction is started with the addition of 10 μl of Substrate Mix ([…], 5 mM alpha-ketoglutarate, in Assay Buffer) and the mixture is incubated for 90 minutes at room temperature.

Chain of IDH1 R132H (O75874 whole entry R132H): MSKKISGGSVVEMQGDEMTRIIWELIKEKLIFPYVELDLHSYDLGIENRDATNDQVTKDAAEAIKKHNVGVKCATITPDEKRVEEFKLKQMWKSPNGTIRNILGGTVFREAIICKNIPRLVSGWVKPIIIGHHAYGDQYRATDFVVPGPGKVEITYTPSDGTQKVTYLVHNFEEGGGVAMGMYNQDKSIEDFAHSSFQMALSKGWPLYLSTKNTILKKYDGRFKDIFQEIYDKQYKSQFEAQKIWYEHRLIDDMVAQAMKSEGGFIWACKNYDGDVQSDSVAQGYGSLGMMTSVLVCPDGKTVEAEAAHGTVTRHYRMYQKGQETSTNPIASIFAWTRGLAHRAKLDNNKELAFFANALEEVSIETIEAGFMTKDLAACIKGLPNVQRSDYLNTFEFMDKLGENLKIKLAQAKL

Row | Compound | pIC50
1 | COc1cccnc1N1C(=O)CC[C@H]1C(=O)N(c1cccc(F)c1)[C@H](C(=O)NC1CC(F)(F)C1)c1ccccc1Cl [Compound 17] | 6.30 to 7.00
2 | O=C(NC1CC(F)(F)C1)[C@H](c1ccccc1Cl)N(C(=O)[C@@H]1CCC(=O)N1c1cccc(F)n1)c1cccc(F)c1 [Compound 11] | 6.30 to 7.00
3 | O=C(NC1CC(F)(F)C1)[C@H](c1ccccc1Cl)N(C(=O)[C@@H]1CCC(=O)N1c1nccc2ccccc12)c1cccc(F)c1 [Compound 16] | 6.30 to 7.00
4 | O=C(NC1CC(F)(F)C1)C(c1ccccc1Cl)N(C(=O)[C@@H]1CCC(=O)N1c1cccnc1)c1cccc(F)c1 (stereo partly shown) [Compound 10] | 6.30 to 7.00

Test system: U87MG cells
Experiment: Cellular assay, inhibition of 2-HG production in U87MG cells
Type: cell-based
Conditions: 48 hours
Method: Cells (HT1080 or U87MG) are grown in T125 flasks in DMEM containing 10% FBS, 1× penicillin/streptomycin and 500 ug/mL G418 (present in U87MG cells only). They are harvested by trypsin and seeded into 96 well white bottom plates at a density of 5000 cell/well in 100 ul/well in DMEM with 10% FBS. […] Cells are incubated overnight at 37° C. in 5% CO2. The next day test compounds are made up at 2× the final concentration and 100 ul are added to each cell well. The final concentration of DMSO is 0.2% and the DMSO control wells are plated in row G. The plates are then placed in the incubator for 48 hours. […] The cell plate is placed back in the incubator for another 24 hours. At 72 hours post compound addition, 10 mL/plate of Promega Cell Titer Glo reagent is thawed and mixed. The cell plate is removed from the incubator and allowed to equilibrate to room temperature. Then 100 ul of Promega Cell Titer Glo reagent is added to each well of media. The cell plate is then placed on an orbital shaker for 10 minutes and then allowed to sit at room temperature for 20 minutes. The plate is then read for luminescence with an integration time of 500 ms.

Row | Compound | pIC50
5 | (S)-1-(4-Cyanopyridin-2-yl)-N—((S)-1-(2,4-dichlorophenyl)-2-((3,3-difluorocyclobutyl)-amino)-2-oxoethyl)-N-(3,5-difluorophenyl)-5-oxopyrrolidine-2-carboxamide [Compound 196] | > 7.00
6 | (S)—N—((S)-1-(2-Chlorophenyl)-2-(3,3-difluorocyclobutylamino)-2-oxoethyl)-N-(3-cyano-5-fluorophenyl)-3-(3-cyanophenyl)-2-oxooxazolidine-4-carboxamide [Compound 134] | > 7.00
7 | N#Cc1cccc(N2C(=O)OC[C@H]2C(=O)N(c2cccc3cn[nH]c23)[C@H](C(=O)NC2CCC(F)(F)CC2)c2ccccc2Cl)c1 [Compound 142, (S)—N—((S)-1-(2-Chlorophenyl)-2-(4,4-difluorocyclohexylamino)-2-oxoethyl)-3-(3-cyanophenyl)-N-(1H-indazol-7-yl)-2-oxooxazolidine-4-carboxamide] | > 7.00
8 | (S)—N—((S)-1-(2-Chlorophenyl)-2-(3,3-difluorocyclobutylamino)-2-oxoethyl)-1-(3-cyano-phenyl)-N-(1H-indazol-7-yl)-5-oxopyrrolidine-2-carboxamide [Compound 186] | > 7.00
9 | (S)—N—((S)-1-(2-Chlorophenyl)-2-((4,4-difluorocyclohexyl)amino)-2-oxoethyl)-1-(4-cyanopyridin-2-yl)-N-(1H-indazol-6-yl)-5-oxopyrrolidine-2-carboxamide [Compound 136] | > 7.00
10 | (S)—N—((S)-1-(2-Chlorophenyl)-2-((3,3-difluorocyclobutyl)amino)-2-oxoethyl)-1-(4-cyanopyridin-2-yl)-N-(1H-indazol-6-yl)-5-oxopyrrolidine-2-carboxamide [Compound 205] | > 7.00
11 | (S)-tert-butyl 3-(((S)-1-(2-chlorophenyl)-2-((3,3-difluorocyclobutyl) amino)-2-oxoethyl)(3,5-difluorophenyl)carbamoyl)-5-oxopiperazine-1-carboxylate [Compound 97] | > 7.00

Molecular target: IDH1 R132C (Homo sapiens (Human), UniProt O75874, R132C)
Experiment: In vitro NADPH depletion assay for IDH1m R132C inhibitors
Type: biochemical
Conditions: IDH1 R132C enzyme, read-out: IDH R132C IC50
Method: as §1
The concentration of NADPH and alpha-ketoglutarate in the Substrate Buffer is 20 μM and 1 mM, respectively.

Chain of IDH1 R132C (O75874 whole entry R132C): as the sequence (O75874 whole entry R132H) above, with H132C counted along it

Row | Compound | pIC50
12 | O=C(NC1CC(F)(F)C1)[C@H](c1ccccc1Cl)N(C(=O)[C@@H]1CCC(=O)N1c1cccc(F)n1)c1cccc(F)c1 [Compound 11] | 6.30 to 7.00
13 | O=C(NC1CC(F)(F)C1)[C@H](c1ccccc1Cl)N(C(=O)[C@@H]1CCC(=O)N1c1nccc2ccccc12)c1cccc(F)c1 [Compound 16] | 6.30 to 7.00
